{"source": "ChEMBL document CHEMBL1137653", "about": "“First report of the emergence of CTX-M-type extended-spectrum beta-lactamases (ESBLs) as the predominant ESBL isolated in a U.S. health care system” (2007)", "assay_type_in_all_cases": "functional", "key": {"Escherichia coli [1]": {"test_system": "Escherichia coli", "assay": "Antimicrobial activity against CTX-M ESBL producing isolate of Escherichia coli at 30 ug by double-disk diffusion method", "settings": "read-out: DIZ"}, "Escherichia coli [2]": {"test_system": "Escherichia coli", "assay": "Antimicrobial activity against non-CTX-M ESBL producing isolate of Escherichia coli by double-disk diffusion method"}, "Klebsiella pneumoniae": {"test_system": "Klebsiella pneumoniae", "assay": "Antimicrobial activity against CTX-M ESBL producing isolate of Klebsiella pneumoniae at 30 ug by double-disk diffusion method", "settings": "read-out: DIZ"}, "Klebsiella oxytoca": {"test_system": "Klebsiella oxytoca", "assay": "Antimicrobial activity against CTX-M ESBL producing isolate of Klebsiella oxytoca at 30 ug by double-disk diffusion method", "settings": "read-out: DIZ"}}}
{"smiles": "CO/N=C(\\C(=O)N[C@@H]1C(=O)N2C(C(=O)O)=C(COC(C)=O)CS[C@H]12)c1csc(N)n1", "note": "[CEFOTAXIME]", "values": [{"measurement": "zone of inhibition at 30 µg/disc", "setting": "Escherichia coli [1]", "value": 8.8, "unit": "mm"}, {"measurement": "diameter of the inhibition zone (DIZ)", "setting": "Escherichia coli [2]", "value": 21, "unit": "mm"}, {"measurement": "zone of inhibition at 30 µg/disc", "setting": "Klebsiella pneumoniae", "value": 10.8, "unit": "mm"}, {"measurement": "zone of inhibition at 30 µg/disc", "setting": "Klebsiella oxytoca", "value": 16.8, "unit": "mm"}]}
{"smiles": "CC(C)(O/N=C(\\C(=O)N[C@@H]1C(=O)N2C(C(=O)[O-])=C(C[n+]3ccccc3)CS[C@H]12)c1csc(N)n1)C(=O)O", "note": "[CEFTAZIDIME]", "values": [{"measurement": "zone of inhibition at 30 µg/disc", "setting": "Escherichia coli [1]", "value": 15.9, "unit": "mm"}, {"measurement": "diameter of the inhibition zone (DIZ)", "setting": "Escherichia coli [2]", "value": 17.3, "unit": "mm"}, {"measurement": "zone of inhibition at 30 µg/disc", "setting": "Klebsiella pneumoniae", "value": 9.8, "unit": "mm"}, {"measurement": "zone of inhibition at 30 µg/disc", "setting": "Klebsiella oxytoca", "value": 9.2, "unit": "mm"}]}
